Laboratory results taken from US11447533B2, “Antimicrobial and anticancer peptides and conjugates and compositions, methods, articles and kits relating thereto” (George Mason Research Foundation, Inc., priority 2018, dated 2022).

System: E. coli ML35p outer membrane
Assay: NPN assay, outer membrane perturbation
Format: cell-based, Escherichia coli
Conditions: DPBS; 25 μM peptide; 25 μM PMB = 100%
Procedure: Interactions with Bacterial Membranes. Interaction of the peptides with bacterial membranes in different phosphate buffers were evaluated using E. coli ML35p, constructed in our laboratory. At first, competent cells of E. coli ML35 were produced by conventional competent cell preparation method, then transformed with pBR322 plasmid. Transformed colonies were selected after growing on Luria-agar containing 50 μg/mL ampicillin. A single transformed colony was grown in presence of ampicillin first in Luria broth and then in MHBII and stored as 20% glycerol stock at −80° C. This frozen stock, on the day of the experiment, was thawed and grown in MHBII containing ampicillin up to OD600 nm=0.8-0.9, washed with PBS and then suspended in the respective buffer up to the required OD600 nm for use.
NPN Assay. The outer membrane perturbation of bacteria was evaluated by incubating E. coli ML35p with peptides in presence of NPN. 100 mM NPN in acetone was supplemented proportionately to a bacterial suspension of OD600 nm˜0.5 to achieve a final concentration of 20 μM of NPN and the mixture was equilibrated for 30 mins. Then, 90 μL of the bacterial suspension containing 20 μM NPN was added with 10 μL of 250 μM peptide (10×) solution in water and scanned for fluorescence intensity (excitation=350 nm, emission=420 nm). The % Perturbation was calculated by considering PMB to be causing 100% Perturbation and water (without peptide) as 0% Perturbation. Each peptide was tested in triplicate in each of the three phosphate buffers used.
When peptides partition from the bulk aqueous environment to the cellular membranes, they may cause small defects in the membrane organization, a signature of adsorption of the peptides into the membranes. Such small defects are called membrane perturbations and can be evaluated by utilizing molecular probes. One such molecular probe is NPN, which is a hydrophobic molecule and is usually repelled to enter the hydrophobic interiors of the membrane by the polar headgroups of membrane-lipids. However, when small defects and gaps are caused during the adsorption of the peptides into the membranes, NPN can enter through those defects and in the hydrophobic environment of the membrane interior the molecule fluoresces, which can be measured for quantification of the extent of membrane-perturbation and peptide adsorption in the cellular membrane.

Sequence: KRWKKFFKKWK (SEQ ID NO: 12) [ATRA1-W2]
- membrane perturbation with respect to PMB: higher OM perturbation than ATRA1
